In patent publication US20090068059A1, “METHOD OF PREVENTING HYDROGEN SULFIDE ODOR GENERATION IN AN AQUEOUS MEDIUM” (priority 2007, published 2009):
Values joined by “and” are separate entries in the source; they are usually repeats but may differ in a detail not shown here. Equal entries are not always repeated. Structures can show the parent of a compound that is named as a salt.

Tested on: sulfate reducing bacteria (SRB)
Assay: Serum bottle test: control of H2S generation and sulfate reducing bacteria in synthetic nutrient medium
Assay type: cell-based
Protocol: The test protocol was as follows: 100 mL serum bottles were filled with synthetic nutrient medium, then stoppered, capped, and autoclaved, and allowed to cool to at least 35 ° C. Using a 1 mL syringe with needle, the treatment was added at desired dosages to prepared serum bottles (triplicates of each dosage). No treatment was added for baseline controls. At least 6 baseline serum bottles were used. Using a 1 mL syringe with needle, 0.1 mL of prepared culture was added to each serum bottle. Next, a 10^10 cells/ml concentration of the sulfate reducers was prepared (using autoclaved synthetic nutrient medium) inside an anaerobic chamber. Using a 1 ml syringe with needle, 0.1 ml of the prepared sulfate reducers culture was added to each serum bottle. The bottles were then incubated at the desired temperature. The baseline dissolved sulfide levels were then measured to determine if the samples were ready for efficacy analysis. Using a 30 mL syringe with needle, 30 mL of sample was removed from each serum bottle. About 25 mL of the sample was added to a 30 mL bottle containing 0.125 mL zinc acetate solution, followed by adding 1 mL of 1N NaOH. The sulfide in the fixed sample was then measured. The remaining 5 mL of sample in the syringe was used for pH determination.

[1] = H2S generation, inhibitor concentration 1 ppm
[2] = H2S generation, inhibitor concentration 2.5 ppm
[3] = H2S generation, inhibitor concentration 5 ppm
[4] = inhibitor concentration 2.5 ppm
[5] = inhibitor concentration 100 ppm

SMILES | % Inhibition [1] | % Inhibition [2] | % Inhibition [3] | H2S concentration (ppm) (inhibitor concentration 1 ppm) | H2S concentration (ppm) [4] | H2S concentration (ppm) (inhibitor concentration 5 ppm) | % H2S Inhibition (inhibitor concentration 25 ppm) | % H2S Inhibition (inhibitor concentration 50 ppm) | % H2S Inhibition [5] | inhibition at 1 ppm [1] | % Inhibition (H2S generation, inhibitor concentration 1 ppm, dihydrochloride) | inhibition at 2.5 ppm [2] | inhibition at 5 ppm [3] | inhibition at 25 ppm (inhibitor concentration 25 ppm) | inhibition at 50 ppm (inhibitor concentration 50 ppm) | inhibition at 100 ppm [5]
N=C(NCCCCCCNC(=N)NC(=N)Nc1ccc(Cl)cc1)NC(=N)Nc1ccc(Cl)cc1.O=C(O)[C@H](O)[C@@H](O)[C@H](O)[C@H](O)CO.O=C(O)[C@H](O)[C@@H](O)[C@H](O)[C@H](O)CO [Chlorhexidine digluconate] | 100% | 100% | 100% | 0 ppm | 0 ppm | 0 ppm | 99% | 99% | 99% and 100% |  |  |  |  |  |  | 
[H]/N=C(\N/C(=N/[H])NCCCCCCNC(=N)NC(=N)Nc1ccc(Cl)cc1)Nc1ccc(Cl)cc1 [Chlorhexidine dihydrochloride] |  |  |  |  | 0 ppm | 0 ppm |  |  |  | 96% | 98% and 95% | 100% | 100% | 99% | 99% | 100%
